Activity calls are given as the source filed them. The rule behind the calls is not given here.
Experiments:
[1] = Selectivity index, ratio of CC50 for African green monkey Vero cells to EC50 for PEDV infected in African green monkey Vero cells
[2] = Cytotoxicity against African green monkey Vero cells after 48 hrs by MTT assay; type: cell-based; conditions: chlorocebus sabaeus
[3] = test system: Porcine epidemic diarrhea virus; assay: Antiviral activity against PEDV infected in African green monkey Vero cells assessed as reduction in virus-induced cytopathic effect after 72 hrs by MTT assay; type: functional, cell-based
[4] = test system: Porcine epidemic diarrhea virus; assay: Antiviral activity against PEDV infected in African green monkey Vero cells assessed as suppression of GP6 neucleocapsid protein expression after 24 hrs by FITC-based immunofluorescence assay; type: functional, cell-based
[5] = test system: Porcine epidemic diarrhea virus; assay: Antiviral activity against PEDV infected in African green monkey Vero cells assessed as suppression of GP2 spike protein expression at 5 uM after 24 hrs by Western blot analysis; type: functional, cell-based
[6] = test system: Porcine epidemic diarrhea virus; assay: Antiviral activity against PEDV infected in African green monkey Vero cells assessed as suppression of GP6 neucleocapsid protein mRNA level after 24 hrs by RT-PCR analysis; type: functional, cell-based
[7] = test system: Porcine epidemic diarrhea virus; assay: Antiviral activity against PEDV infected in African green monkey Vero cells assessed as suppression of GP2 spike protein mRNA level after 24 hrs by RT-PCR analysis; type: functional, cell-based
[8] = test system: Porcine epidemic diarrhea virus; assay: Antiviral activity against PEDV infected in African green monkey Vero cells assessed as suppression of GP6 neucleocapsid protein expression after 24 hrs by Western blot analysis; type: functional, cell-based
[9] = test system: Porcine epidemic diarrhea virus; assay: Antiviral activity against PEDV infected in African green monkey Vero cells assessed as suppression of GP5 neucleocapsid protein mRNA level after 24 hrs by RT-PCR analysis; type: functional, cell-based
[10] = test system: Porcine epidemic diarrhea virus; assay: Antiviral activity against PEDV infected in African green monkey Vero cells assessed as suppression of GP2 spike protein expression after 24 hrs by Western blot analysis; type: functional, cell-based
[11] = test system: Porcine epidemic diarrhea virus; assay: Antiviral activity against PEDV infected in African green monkey Vero cells assessed as suppression of GP6 neucleocapsid protein expression at 10 uM after 24 hrs by FITC-based immunofluorescence assay; type: functional, cell-based

Compound	Ratio CC50/EC50 [1]	CC50 at 48 h [2] [µM]	EC50 [3] [µM]	Activity [4]	Activity [5]	Activity [6]	Activity [7]	Activity [8]	Activity [9]	Activity [10]	Activity [11]
C[C@@]1(C(=O)O)[C@@H](O)CC[C@]2(C)c3cc4c([nH]c5ccccc54)c(Cl)c3CC[C@@H]12	12.89	162	12.8	–	–	–	–	–	–	–	–
COC(=O)[C@]1(C)[C@@H](O)CC[C@]2(C)c3cc4c(cc3[C@@H](O)C[C@@H]12)[nH]c1ccccc14	60.31	56	0.93	Dose-dependent effect	Dose-dependent effect	Dose-dependent effect	Dose-dependent effect	Dose-dependent effect	Dose-dependent effect	Dose-dependent effect	–
C[C@@]1(C(=O)O)[C@@H](O)CC[C@]2(C)c3cc4c(cc3[C@@H](O)C[C@@H]12)[nH]c1ccccc14	6.75	76.9	11.5	–	–	–	–	–	–	–	–
O=c1cnn([C@@H]2O[C@H](CO)[C@@H](O)[C@H]2O)c(=O)[nH]1 [6-AZAURIDINE]	12.7	57.3	4.48	–	Active	–	–	–	–	–	Active
C[C@@]1(C(=O)O)[C@@H](O)CC[C@]2(C)c3cc4c(cc3CC[C@@H]12)[nH]c1ccccc14 [XIAMYCIN]	7	138	20.1	–	–	–	–	–	–	–	–
COC(=O)[C@]1(C)[C@@H](O)CC[C@]2(C)c3cc4c(cc3C(=O)C[C@@H]12)[nH]c1ccccc14	34.63	98.7	2.89	–	Active	–	Active	–	–	–	–
COC(=O)[C@]1(C)[C@@H](O)CC[C@]2(C)c3cc4c(cc3CC[C@@H]12)[nH]c1ccccc14	18.09	103	5.69	–	–	–	–	–	–	–	–

From ChEMBL document CHEMBL3785073, “Antiviral Indolosesquiterpenoid Xiamycins C-E from a Halophilic Actinomycete” (J Nat Prod, 2016)
